The results in this text go back to US20100069854A1, “Elastomeric Devices Containing Chlorhexidine/Fatty Acid Salts Made From Fatty Acids of 12 to 18 Carbons” (priority 2008, published 2010).

The structures appear in SMILES notation.

The subject of series [1] is Candida albicans ATCC 10231. Description: Zone of inhibition assay with impregnated polyurethane foam discs. Type of series: cell-based.
For series [2] the following is noted: 90% THF+10% Methanol. The text has this: Chlorhexidine diacetate, Chlorhexidine dodecanoate and chlorhexidine palmitate were loaded into silicone tubing by first dissolving the chlorhexidine salt in a 90% THF+10% Methanol solution. The tubing was then immersed in this solution for one day where it swelled and chlorhexidine salt diffused into the polymer matrix. The impregnated piece of tubing was removed and then vacuum dried to remove all volatile solvent.

As to `N=C(NCCCCCCNC(=N)NC(=N)Nc1ccc(Cl)cc1)NC(=N)Nc1ccc(Cl)cc1.Nc1ccc(P(=O)(O)O)cc1.Nc1ccc(P(=O)(O)O)cc1` [Chlorhexidine Palmitate, chlorhexidine dipalmitate], the “ZOI produced by impregnated polyurethane foam punches against Candida albicans” value worked out at 14 mm in series [1] (Day 1, daily transfer to fresh agar); 21 mm in series [1] (Day 2, daily transfer to fresh agar); 19 mm in series [1] (Day 3, daily transfer to fresh agar); 14 mm in series [1] (Day 4, daily transfer to fresh agar); 11 mm in series [1] (Day 7, daily transfer to fresh agar); 14 mm in series [1] (Day 8, daily transfer to fresh agar). Besides, the “ZOI produced by impregnated polyurethane foam punches against Candida albicans” value in series [1] (Day 9, daily transfer to fresh agar) is given as 15 mm. Moreover, the “Solubility in the swelling impregnation solvent mixture (in words)” value in series [2] was “soluble at higher concentrations”.
